Experimental data reported in patent US9439882B2, “Compounds and compositions for the treatment of cancer” (PROMETIC BIOSCIENCES, INC., priority 2010, dated 2016).

Experiments:
IL-12 production = IL-12 production in LPS-stimulated RAW264.7 cells (ELISA); assay type: cell-based; details: compound 0.5 mM; 100 ng/mL LPS, 21 h
Procedure: The effect of selected compounds on IL-12 production was undertaken in RAW264.7 (macrophage-like) cells. RAW264.7 cells were cultured with 100 ng/mL of LPS in presence or absence of compounds for 21 h in a humidified atmosphere of 95% air-5% carbon dioxide at 37° C. IL-12 concentration in the culture medium was measured using the IL-12 ELISA according to the manufacturer (BD Biosciences) recommendations. […] Compounds have no effect on IL-12 production in the absence of LPS.

CTGF production [1] = test: Inhibition of TGF-induced CTGF production in NHDF (ELISA); assay type: cell-based; details: Homo sapiens, 10 ng/mL TGF-β, 48 h
Procedure: (§1) The effect of selected compounds on CTGF production was undertaken in normal human dermal fibroblast (NHDF) or human mesangial cells. Cells were cultured in DMEM (0.5% FBS) with or without 10 ng/mL of TGF-β for 48 h in a humidified atmosphere of 95% air-5% carbon dioxide at 37° C. CTGF measurement in the culture medium was measured using the CTGF ELISA according to the manufacturer (Prepotech) recommendations.

CTGF production [2] = test: Inhibition of TGF-induced CTGF production in human mesangial cells (ELISA); assay type: cell-based; details: FIG. 2
Procedure: as §1

P815 mastocytoma = test: Primary P815 mastocytoma tumor growth in mice; assay type: in vivo
Text: The syngeneic tumor P815 is a DBA/2 (H-2^d)-derived mastocytoma obtained from ATCC (TIB64). […] Mice were sacrificed around day 23 (depending on the experiment). […] Tumors were palpable, in general, 3-5 days post-inoculation.

HK-2 cells = test: TGF-β induced epithelial to mesenchymal transition in HK-2 cells (real-time PCR of E-cadherin, CTGF, collagen 1); assay type: cell-based, human; details: sodium decanoate and Compound I at 0.5 mM; for TGF-β induced EMT: HK-2 cells; for CTGF transcript expression / collagen 1 transcript expression: TGF-β-stimulated cells, 24 h, normalized to GAPDH; for basal expression of CTGF / basal expression of collagen 1: compound alone, no TGF-β
Procedure: (§2) FIG. 20 is a bar graph showing the effect of Compound XVII on E-cadherin in normal HK-2 cells and in TGF-β induced EMT cells. Real-time PCR using human E-cadherin TaqMan® Gene Expression Assay normalized to human GAPDH endogenous control; reference is TGF-δ-treated cells 24 h (RQ=1). *means p<0.05, and ** means p<0.01 (t-test).
as §2, with “FIG. 21” for “FIG. 20”, “on CTGF” for “on E-cadherin”, “human CTGH” for “human E-cadherin”, “is TGF-β-treated” for “is TGF-δ-treated”
FIG. 22 is a bar graph showing the effect of Compound XVII on collagen 1 in normal HK-2 cells and in TGF-β induced EMT cells. Real-time PCR using human Collagen 1 TaqMan® Gene Expression Assay normalized to human GAPDH endogenous control; reference is TGF-β-treated cells 24 h (RQ=1). ** means p<0.01 (t-test).
Real-time PCR using human CTGF TaqMan® Gene Expression Assay and Collagen 1 TaqMan® Gene Expression Assay normalized to human GAPDH endogenous control; reference is TGF-β-treated cells 24 h (RQ=1).
FIG. 24 is a bar graph showing the effect of Compound I on CTGF and collagen 1 expression in normal HK-2 cells and in TGF-β induced EMT cells. Real-time PCR using human CTGF TaqMan® Gene Expression Assay and Collagen 1α1 TaqMan® Gene Expression Assay normalized to human GAPDH endogenous control; reference is TGF-β-treated cells 24 h (RQ=1). Compound I is added at 0.5 mM.
Further analysis was undertaken to determine the effect of Compoounds on EMT. The effect of Compound XVII on TGF-β induced EMT was analyzed on human epithelial […] cells (HK-2). To assess the progression of EMT, the pro-epithelial marker E-cadherin and the mesenchymal/pro-fibrotic markers CTGF and collagen 1 were assayed by quantitative real-time PCR. To determine the efficacy of Compound XVII in inhibiting TGF-β-induced EMT, verification of the ability of TGF-β to induce EMT in HK-2 cells.

[3] = tested on: human prostate PC-3 tumor; test: Xenograft human prostate PC-3 tumor in mice; assay type: in vivo; details: cyclophosphamide alone; p≦0.05; FIG. 15
Procedure: The xenogenic human prostate tumor PC-3 was obtained from ATCC (CRL1435). PC-3 cells were grown in RPMI-1640 containing 10% fetal bovine serum. At day 0, 50 μL of viable PC-3 (1.5 to 2×10^6) cells were subcutaneously injected to produce localized tumors in 6- to 8-week old male CD1 nu/nu mice. The animals were then serially monitored by manual palpation for evidence of tumor. […] Mice were sacrificed at day 56. Serial tumor volume was obtained by bi-dimensional diameter measurements with calipers, using the formula 0.4 (a×b^2) where “a” was the major tumor diameter and “b” the minor perpendicular diameter.

B16F10 melanoma cells = test: Primary B16F10 melanoma tumor in mice; assay type: in vivo; details: C57BL/6 mice; sodium decanoate 100 mg/kg oral daily, doxorubicin 5 mg/kg (subtherapeutic dose); FIG. 3
Procedure: Female 6-8 week old C57BL/6 mice were injected subcutaneously on day 0 with 50 μL of 3.75×10^4 viable B16F10 melanoma cells from ATCC (source of cell culture, Dr. I. J. Fidler). On day 14, tumors reached […] and animals were randomized for treatment. […] Mice were sacrificed on day 12.

Panc02 pancreatic cancer = test: Subcutaneous Panc02 pancreatic tumor growth; assay type: in vivo, mice; details: from day 34-39; oral; p<0.05; FIG. 16
P815 liver metastasis = P815 liver metastasis in mice; assay type: in vivo; details: oral 200 mg/kg; p<0.05; FIG. 9 and 10
Procedure: The syngeneic tumor P815 is a DBA/2 (H-2^d)-derived mastocytoma obtained from ATCC (TIB64). P815 cells were grown in DMEM containing 10% fetal bovine serum. At day 0, 50 μL of 5×10^5 viable P815 cells were subcutaneously injected to produce localized tumors in 6- to 8-week old DBA/2 mice. The animals were then serially monitored by manual palpation for evidence of tumor. […] Mice were sacrificed around day 23 (depending on the experiment). Serial tumor volume was obtained by bi-dimensional diameter measurements with calipers, using the formula 0.4 (a×b^2) where “a” was the major tumor diameter and “b” the minor perpendicular diameter. Tumors were palpable, in general, 3-5 days post-inoculation.
It is known that P815 cells have the capacity to metastasize to the liver.

LL/2 lung tumor = LL/2 lung tumor in mice; assay type: in vivo; details: sodium decanoate oral 200 mg/kg daily; gemcitabine i.p. 50 mg/kg day 1, 8, 15, 22; FIG. 11
Text: The syngeneic tumor LL/2 is a lung tumor cell line obtained from ATCC (CRL-1642). […] Mice were sacrificed at day 26. […] Tumors were palpable, in general, 3-5 days post-inoculation.

CT-26WT colon tumor = test: Primary colon CT-26WT tumor in mice; assay type: in vivo; details: sodium decanoate oral 200 mg/kg daily; 5-fluorouracil i.p. 40 mg/kg day 6, 13, 20; Compound XV oral; FIG. 12 and 13
Procedure: The syngeneic tumor CT-26WT (CT-26) is a colon tumor cell line obtained from ATCC (CRL-2638). CT-26 cells were grown in RPMI containing 10% fetal bovine serum. At day 0, 50 μL of 5×10^6 viable CT-26 cells were subcutaneously injected to produce localized tumors in 6- to 8-week old mice. The animals were then serially monitored by manual palpation for evidence of tumor. […] Mice were sacrificed at day 25. Serial tumor volume was obtained by bi-dimensional diameter measurements with calipers, using the formula 0.4 (a×b^2) where “a” was the major tumor diameter and “b” the minor perpendicular diameter. Tumors were palpable, in general, 3-5 days post-inoculation.

[4] = tested on: Panc02 pancreatic adenocarcinoma; test: Orthotopic Panc02 pancreatic cancer model, survival; assay type: in vivo; details: C57BL/6 mice; gemcitabine i.p. 50 mg/kg once a week, Compound XV oral 200 mg/kg daily; control 50 days; FIG. 4
Procedure: Syngeneic Panc02 is a pancreatic adenocarcinoma tumor cell line obtained from NCI (0507232). Panc02 cells are positive for Ki-Ras, p53, HerNEU and CDK. Panc02 were grown in RPMI-1640 containing 10% fetal bovine serum. At day 0, 50 μL of 5×10^5 viable Panc02 cells were injected into the tail of the pancreas in 6- to 8-week old C57BL/6 mice. Mice were then treated every day with oral administration of vehicle (saline, negative control), or Compound XV and with intraperitoneal injection of gemcitabine (50 mg/kg) once a week starting at day 8.

CCCCCc1cccc(CC(=O)[O-])c1.[Na+] [Compound I, Sodium Salt of (3-pentylphenyl)Acetic Acid]
IL-12 (IL-12 production): 54 pg/mL | inhibition at 200 µM (CTGF production [1]; 200 μM): 54% | inhibition of TGF-induced CTGF production (CTGF production [2]): significant (p<0.05) inhibition | P815 tumor growth (P815 mastocytoma; oral 200 mg/kg, FIG. 7 and 8): significant reduction (p<0.05) | TGF-β induced EMT (HK-2 cells): significant inhibition | CTGF transcript expression (HK-2 cells): reduction | collagen 1 transcript expression (HK-2 cells): reduction | basal expression of CTGF (HK-2 cells): reduction | basal expression of collagen 1 (HK-2 cells): reduction

O=P1(N(CCCl)CCCl)NCCCO1 (centres unmarked) [Cyclophosphamide, cyclophosphamide]
tumor growth T/C [3]: 42-78%

CCCCCCCCCC(=O)[O-].[Na+] [Sodium decanoate]
IL-12 (IL-12 production): 50 pg/mL | inhibition at 500 µM (CTGF production [1]; 500 μM): 51% | reduction of primary tumor volume compared to the control (B16F10 melanoma cells): around 25% | tumor growth Treated/Control (T/C) (Panc02 pancreatic cancer): 60-70% | P815 tumor growth (P815 mastocytoma; DBA/2 mice, oral 40-200 mg/kg every day, FIG. 6): significant reduction (p<0.05) | P815 tumor growth (P815 mastocytoma; oral 200 mg/kg, FIG. 7 and 8): significant reduction (p<0.05) | reduction of mice with liver metastasis (P815 liver metastasis): 50% | efficacy on primary tumor LL/2 (single agent) (LL/2 lung tumor): weak efficacy | efficacy on primary tumor CT-26 (single agent) (CT-26WT colon tumor): weak efficacy | TGF-β induced EMT (HK-2 cells): significant inhibition | CTGF transcript expression (HK-2 cells): reduction | collagen 1 transcript expression (HK-2 cells): reduction | basal expression of CTGF (HK-2 cells): reduction | basal expression of collagen 1 (HK-2 cells): reduction

Nc1ccn([C@@H]2O[C@H](CO)[C@@H](O)C2(F)F)c(=O)n1 [gemcitabine, reference compound]
median survival [4]: 68.5 days | efficacy on primary tumor LL/2 (single agent) (LL/2 lung tumor): weak efficacy
